Assay results: ChEMBL document CHEMBL1129339, “Mapping the aspartic acid binding site of Escherichia coli asparagine synthetase B using substrate analogs” (J Med Chem, 1996)

Columns and labels:
[1] = test system: Asparagine synthetase B (Escherichia coli); assay: Non competitive Inhibition constant of Asparagine synthetase of Glutamine-Dependent Synthetase Activity using glutamine as substrate
[2] = test system: Asparagine synthetase B (Escherichia coli); assay: Competitive Inhibition constant of Asparagine synthetase of Glutamine-Dependent Synthetase Activity using aspartate as substrate
[3] = test system: Asparagine synthetase B (Escherichia coli); assay: Non competitive Inhibition constant of Asparagine synthetase of Glutamine-Dependent Synthetase Activity using ATP as substrate
[4] = test system: Asparagine synthetase B (Escherichia coli); assay: Noncompetitive Inhibition constant of Asparagine synthetase of Glutamine-Dependent Synthetase Activity using ATP as substrate
[5] = test system: Asparagine synthetase B (Escherichia coli); assay: Noncompetitive Inhibition constant of Asparagine synthetase of Glutamine-Dependent Synthetase Activity using aspartate as substrate
[6] = test system: Asparagine synthetase B (Escherichia coli); assay: Noncompetitive Inhibition constant of Asparagine synthetase of Glutamine-Dependent Synthetase Activity using glutamine as substrate
[7] = test system: Asparagine synthetase B (Escherichia coli); assay: Uncompetitive Inhibition constant of Asparagine synthetase of Glutamine-Dependent Synthetase Activity using glutamine as substrate

Kii [1] | Kis [1] | Kis [2] | Kii [3] | Kis [3] | Kii [4] | Kis [4] | Kii [5] | Kis [5] | Kii [6] | Kis [6] | Kii [7] | SMILES
1.71 mM | 1.62 mM | 0.25 mM | 3.28 mM | 0.45 mM | – | – | – | – | – | – | – | C[C@@H](C(=O)O)[C@H](N)C(=O)O (single isomer, unassigned)
– | – | – | – | – | 15 mM | 8 mM | > 50 mM | 18 mM | 16.5 mM | 93 mM | – | C[C@H](C(=O)O)[C@H](N)C(=O)O
– | – | 2.65 mM | – | – | 4.8 mM | 2.65 mM | – | – | – | – | 2.57 mM | O=C(O)[C@H]1NCC[C@H]1C(=O)O
